Target: T1, Dihydrofolate reductase (Escherichia coli (strain K12), UniProt O30463+P0ABQ4)
T1 sequence (P0ABQ4 whole entry): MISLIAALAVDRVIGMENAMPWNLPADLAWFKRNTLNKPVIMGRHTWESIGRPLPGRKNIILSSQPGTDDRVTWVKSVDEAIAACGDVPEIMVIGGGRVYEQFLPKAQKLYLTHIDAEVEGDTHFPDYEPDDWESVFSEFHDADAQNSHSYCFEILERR
T1 sequence (O30463 whole entry): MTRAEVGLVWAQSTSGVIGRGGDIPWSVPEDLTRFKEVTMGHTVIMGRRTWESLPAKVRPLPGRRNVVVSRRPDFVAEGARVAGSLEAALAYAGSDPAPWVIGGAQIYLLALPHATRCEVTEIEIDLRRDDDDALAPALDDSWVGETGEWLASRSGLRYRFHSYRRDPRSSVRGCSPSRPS
Assay: Inhibitory concentration against Escherichia coli dihydrofolate reductase

CN(Cc1ccc2c(n1)C(N)N=C(N)N2)c1ccc(C(=O)NC(CCC(=O)O)C(=O)O)cc1 (stereo unspecified) [2-{4-[(2,4-Diamino-4,4a-dihydro-pyrido[3,2-d]pyrimidin-6-ylmethyl)-methyl-amino]-benzoylamino}-pentanedioic acid]
IC50: 660 µM
